The source of these data is patent US8815881B2 (Hoffmann-La Roche Inc., priority 2010, dated 2014).

The assay deals with endogenous cellular BACE2 in the Ins1e rat cell line (Rattus norvegicus (Rat), UniProt Q6IE75). Put plainly: Assay for BACE inhibition by measuring cellular TMEM27 cleavage (ELISA of shed hTMEM27 from INS-TMEM27 cells). The format is cell-based. The conditions noted are these: assay a): cellular TMEM27 cleavage, INS-TMEM27 cells (superscript a). From the text: a) Assay for BACE Inhibition by Measuring Cellular TMEM27 Cleavage:
The assay uses the principle of inhibition of human TMEM27 cleavage by endogenous cellular BACE2 in the Ins1e rat cell line and shedding from the cell surface into the culture medium, followed by detection in an ELISA assay. Inhibition of BACE2 prevents the cleavage and shedding in a dose-dependent manner.
The stable cell line “INS-TMEM27” represents an INS1e-derived cell line with inducible expression (using the TetOn system) of full-length hTMEM27 in a doxycycline-dependent manner. The cells are cultured throughout the experiment in RPMI1640+Glutamax (Invitrogen) Penicillin/Streptomycin, 10% Fetal bovine serum, […], […], 100 micrograms/ml G418 and 100 microgram/ml hygromycin and are grown inadherent culture at 37° C. in a standard CO2 cell culture incubator.
INS-TMEM27 cells are seeded in 96-well plates. After 2 days in culture, BACE2 inhibitor is added in a range of concentrations as required by the assay and after a further two hours, doxycycline is added to a final concentration of 500 ng/ml. The cells are incubated for a further 46 hours and the supernatant harvested for detection of shed TMEM27.
An ELISA assay (using a pair of mouse anti-human-TMEM27 antibodies, raised against the extracellular domain of TMEM27) is used for detection of TMEM27 in the culture medium. An EC50 for BACE2 inhibition is calculated using the ELISA readout for each inhibitor concentration with standard curve-fitting software such as XLFit for the Excel spreadsheet program.
For orientation: ELISA stands for enzyme-linked immunosorbent assay.

endogenous cellular BACE2 in the Ins1e rat cell line, sequence (Q6IE75 63-514): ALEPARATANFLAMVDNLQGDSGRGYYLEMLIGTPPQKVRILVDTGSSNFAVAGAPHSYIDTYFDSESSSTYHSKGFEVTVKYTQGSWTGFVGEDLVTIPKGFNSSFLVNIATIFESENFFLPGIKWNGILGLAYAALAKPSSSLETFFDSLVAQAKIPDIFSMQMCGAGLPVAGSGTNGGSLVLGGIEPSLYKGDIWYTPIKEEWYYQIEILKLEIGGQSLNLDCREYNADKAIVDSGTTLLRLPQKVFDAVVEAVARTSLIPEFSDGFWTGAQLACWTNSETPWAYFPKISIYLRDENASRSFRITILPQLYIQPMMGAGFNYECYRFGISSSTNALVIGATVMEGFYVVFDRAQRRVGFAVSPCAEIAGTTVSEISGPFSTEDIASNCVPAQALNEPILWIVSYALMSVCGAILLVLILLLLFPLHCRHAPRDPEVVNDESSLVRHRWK

A word on the IC50: it is the concentration at which inhibition is half-maximal. As to `CN1C(=O)C(C)(C)[C@@](C)(c2cc(NC3CCCC3C#N)ccc2F)N=C1N` (stereo partly drawn) [Example 135, 2-[3-((S)-2-Amino-1,4,5,5-tetramethyl-6-oxo-1,4,5,6-tetrahydro-pyrimidin-4-yl)-4-fluoro-phenylamino]-cyclopentanecarbonitrile], half-maximal inhibition (IC50) was put at 1 nM.
`CC(=O)N1CC(Nc2ccc(F)c([C@@]3(C)N=C(N)N(C)C(=O)C3(C)C)c2)c2ccc(F)cc21` (stereo partly drawn) [Example 137, (S)-6-[5-(1-Acetyl-6-fluoro-2,3-dihydro-1H-indol-3-ylamino)-2-fluoro-phenyl]-2-amino-3,5,5,6-tetramethyl-5,6-dihydro-3H-pyrimidin-4-one]: the IC50 is 124 nM.
In the case of `CN1C(=O)C(C)(C)[C@@](C)(c2cc(NC3COc4cc(Cl)ccc43)ccc2F)N=C1N` (stereo partly drawn) [Example 133, (S)-2-Amino-6-[5-(6-chloro-2,3-dihydro-benzofuran-3-ylamino)-2-fluoro-phenyl]-3,5,5,6-tetramethyl-5,6-dihydro-3H-pyrimidin-4-one], the midpoint of inhibition, the IC50, lay at 41 nM.
For the molecule `CN1C(=O)C(C)(C)[C@@](C)(c2cc(Nc3ccn(C)n3)ccc2F)N=C1N` [Example 99, (S)-2-Amino-6-[2-fluoro-5-(1-methyl-1H-pyrazol-3-ylamino)-phenyl]-3,5,5,6-tetramethyl-5,6-dihydro-3H-pyrimidin-4-one], the IC50 came out at 6 nM.
In turn, `CN1C(=O)C(C)(C)[C@@](C)(c2cc(NC(=O)C(C(F)(F)F)C(F)(F)F)ccc2F)N=C1N` [Example 7, N-[3-((S)-2-Amino-1,4,5,5-tetramethyl-6-oxo-1,4,5,6-tetrahydro-pyrimidin-4-yl)-4-fluoro-phenyl]-3,3,3-trifluoro-2-trifluoromethyl-propionamide] had an IC50 of 1010 nM.
For the molecule `Cc1ccc2c(c1)C(Nc1ccc(F)c([C@@]3(C)N=C(N)N(C)C(=O)C3(C)C)c1)CC2(C)C` (stereo partly drawn) [Example 46, (S)-2-Amino-6-[2-fluoro-5-(3,3,6-trimethyl-indan-1-ylamino)-phenyl]-3,5,5,6-tetramethyl-5,6-dihydro-3H-pyrimidin-4-one], 109 nM corresponded to half-maximal inhibition (IC50).
For `CN1C(=O)C(C)(C)[C@@](C)(c2cc(NC(=O)C3(C)CC3)ccc2F)N=C1N` [Example 18, (S)—N-(3-(2-Amino-1,4,5,5-tetramethyl-6-oxo-1,4,5,6-tetrahydropyrimidin-4-yl)-4-fluorophenyl)-1-methylcyclopropanecarboxamide], the IC50 worked out at 23 nM.
The molecule `CC(Nc1ccc(F)c([C@@]2(C)N=C(N)N(C)C(=O)C2(C)C)c1)c1nc2ccccc2s1` (stereo partly drawn) [Example 127, (S)-2-Amino-6-[5-(1-benzothiazol-2-yl-ethylamino)-2-fluoro-phenyl]-3,5,5,6-tetramethyl-5,6-dihydro-3H-pyrimidin-4-one] showed an IC50 of 73 nM.
`CN1C(=O)C(C)(C)[C@@](C)(c2cc(NCC3(C)CC3(F)F)ccc2F)N=C1N` (stereo partly drawn) [Example 68, (S)-2-Amino-6-{5-[(2,2-difluoro-1-methyl-cyclopropylmethyl)-amino]-2-fluoro-phenyl}-3,5,5,6-tetramethyl-5,6-dihydro-3H-pyrimidin-4-one]: half-maximal inhibition (IC50) required 3 nM.
Then `Cc1nc(C(C)Nc2ccc(F)c([C@@]3(C)N=C(N)N(C)C(=O)C3(C)C)c2)sc1C` (stereo partly drawn) [Example 126, (S)-2-Amino-6-{5-[1-(4,5-dimethyl-thiazol-2-yl)-ethylamino]-2-fluoro-phenyl}-3,5,5,6-tetramethyl-5,6-dihydro-3H-pyrimidin-4-one], with 26 nM; and `COc1ccc(C(=O)O)cc1Nc1ccc(F)c([C@@]2(C)N=C(N)N(C)C(=O)C2(C)C)c1` [Example 129, (S)-3-(3-(2-amino-1,4,5,5-tetramethyl-6-oxo-1,4,5,6-tetrahydropyrimidin-4-yl)-4-fluorophenylamino)-4-methoxybenzoic acid], with 3050 nM; and `CN1C(=O)C(C)(C)[C@@](C)(c2cc(NC3COc4ccccc43)ccc2F)N=C1N` (stereo partly drawn) [Example 51, (6S)-2-amino-6-(5-(2,3-dihydrobenzofuran-3-ylamino)-2-fluorophenyl)-3,5,5,6-tetramethyl-5,6-dihydropyrimidin-4(3H)-one], with 73 nM.
As for `CN1C(=O)C(C)(C)[C@@](C)(c2cc(NC(=O)C(O)(C(F)(F)F)C(F)(F)F)ccc2F)N=C1N` [Example 148, (S)—N-(3-(2-amino-1,4,5,5-tetramethyl-6-oxo-1,4,5,6-tetrahydropyrimidin-4-yl)-4-fluorophenyl)-3,3,3-trifluoro-2-hydroxy-2-(trifluoromethyl)propanamide], inhibition was half-maximal at 497 nM (IC50).
The molecule `C[C@@]1(c2cccc(NC(=O)C3(C(F)(F)F)CC3)c2)CC(=O)N(CC2CC2)C(N)=N1` [Example 13, 1-Trifluoromethyl-cyclopropanecarboxylic acid [3-((S)-2-amino-1-c-cyclopropylmethyl-4-methyl-6-oxo-1,4,5,6-tetrahydro-pyrimidin-4-yl)-phenyl]-amide] returned an IC50 of 190 nM.
In the case of `CN1C(=O)C(C)(C)[C@@](C)(c2cc(NC3CCc4c(C(=O)O)cccc43)ccc2F)N=C1N` (stereo partly drawn) [Example 136, 1-[3-((S)-2-Amino-1,4,5,5-tetramethyl-6-oxo-1,4,5,6-tetrahydro-pyrimidin-4-yl)-4-fluoro-phenylamino]-indan-4-carboxylic acid], the IC50 was determined as 2000 nM.
Then `CN1C(=O)C(C)(C)[C@@](C)(c2cc(Nc3ccccc3OC(F)(F)F)ccc2F)N=C1N` [Example 74, (S)-2-Amino-6-(2-fluoro-5-(2-(trifluoromethoxy)phenylamino)phenyl)-3,5,5,6-tetramethyl-5,6-dihydropyrimidin-4(3H)-one], with 76 nM; and `CN1C(=O)C(C)(C)[C@@](C)(c2cc(NCC3(C)COC3)ccc2F)N=C1N` [Example 71, (S)-2-Amino-6-{2-fluoro-5-[(3-methyl-oxetan-3-ylmethyl)-amino]-phenyl}-3,5,5,6-tetramethyl-5,6-dihydro-3H-pyrimidin-4-one], with 14 nM.
Molecule `CN1C(=O)C(C)(C)[C@@](C)(c2cc(Nc3ccc(F)cc3)ccc2F)N=C1N` [Example 89, (S)-2-Amino-6-[2-fluoro-5-(4-fluoro-phenylamino)-phenyl]-3,5,5,6-tetramethyl-5,6-dihydro-3H-pyrimidin-4-one] had an IC50 of 1140 nM.
For `CC1OCCC1Nc1ccc(F)c([C@@]2(C)N=C(N)N(C)C(=O)C2(C)C)c1` (stereo partly drawn) [Example 34, (6S)-2-Amino-6-(2-fluoro-5-(2-methyltetrahydrofuran-3-ylamino)phenyl)-3,5,5,6-tetramethyl-5,6-dihydropyrimidin-4(3H)-one], 8 nM corresponded to half-maximal inhibition (IC50).
`CN1C(=O)C(C)(C)[C@@](C)(c2cc(NC3CCCC3)ccc2F)N=C1N` [Example 21, (S)-2-Amino-6-(5-(cyclopentylamino)-2-fluorophenyl)-3,5,5,6-tetramethyl-5,6-dihydropyrimidin-4(3H)-one]: half-maximal inhibition (IC50) required 14 nM.
Molecule `CC(Nc1ccc(F)c([C@@]2(C)N=C(N)N(C)C(=O)C2(C)C)c1)C1CC1` (stereo partly drawn) [Example 37, (S)-2-Amino-6-[5-(1-cyclopropyl-ethylamino)-2-fluoro-phenyl]-3,5,5,6-tetramethyl-5,6-dihydro-3H-pyrimidin-4-one] showed an IC50 of 39 nM.
Under `CN1C(=O)C(C)(C)[C@@](C)(c2cc(NC3CCc4cccc(F)c43)ccc2F)N=C1N` (stereo partly drawn) [Example 63, (6S)-2-Amino-6-(2-fluoro-5-(7-fluoro-2,3-dihydro-1H-inden-1-ylamino)phenyl)-3,5,5,6-tetramethyl-5,6-dihydropyrimidin-4(3H)-one] stands 21 nM.
In turn, `CC(Nc1ccc(F)c([C@@]2(C)N=C(N)N(C)C(=O)C2(C)C)c1)c1ncccn1` (stereo partly drawn) [Example 80, (S)-2-Amino-6-[2-fluoro-5-(1-pyrimidin-2-yl-ethylamino)-phenyl]-3,5,5,6-tetramethyl-5,6-dihydro-3H-pyrimidin-4-one] came in with an IC50 of 44 nM.
Consider `CN1C(=O)C(C)(C)[C@@](C)(c2cc(NC3CCC(CC(=O)O)C3(C)C)ccc2F)N=C1N` (stereo partly drawn) [Example 116, 2-(3-(3-((S)-2-Amino-1,4,5,5-tetramethyl-6-oxo-1,4,5,6-tetrahydropyrimidin-4-yl)-4-fluorophenylamino)-2,2-dimethylcyclopentyl)acetic acid], for which inhibition was half-maximal at 2160 nM (IC50).
Consider `CC(Nc1ccc(F)c([C@@]2(C)N=C(N)N(C)C(=O)C2(C)C)c1)c1ccccc1` (stereo partly drawn) [Example 38, (S)-2-Amino-6-[2-fluoro-5-(1-phenyl-ethylamino)-phenyl]-3,5,5,6-tetramethyl-5,6-dihydro-3H-pyrimidin-4-one], for which the IC50 is 48 nM.
`CN1C(=O)C(C)(C)[C@@](C)(c2cc(NC(=O)C3CC3)ccc2F)N=C1N` [Example 17, (S)—N-(3-(2-Amino-1,4,5,5-tetramethyl-6-oxo-1,4,5,6-tetrahydropyrimidin-4-yl)-4-fluorophenyl)cyclopropanecarboxamide] had an IC50 of 360 nM.
For `CN1C(=O)C(C)(C)[C@@](C)(c2cc(Nc3cccc4c3OC(C)(C)C4)ccc2F)N=C1N` [Example 156, (S)-2-Amino-6-(5-(2,2-dimethyl-2,3-dihydrobenzofuran-7-ylamino)-2-fluorophenyl)-3,5,5,6-tetramethyl-5,6-dihydropyrimidin-4(3H)-one], inhibition was half-maximal at 1210 nM (IC50).
